Patent EP4803519A1, “NOVEL PRMT5 INHIBITOR AND USE THEREOF” (Shanghai Apeiron Therapeutics Company Limited, priority 2023, dated 2025)

Assays:
Type in all cases: cell-based
[1] = tested on: HCT-116 MTAP(-/-)deleted cells; test: Inhibitory activity on proliferation of HCT-116 MTAP(-/-)deleted cells (Cell-Titer Glo); settings: Homo sapiens, 144 h, incubated 6 d, 0-1,000 nM
Method: (§1) Materials and cells: HCT-116 MTAP(-/-)deleted cells were purchased from Kyinno Biotechnology (China); RPMI-1640 medium, and fetal bovine serum were purchased from Thermo Fisher (United States); 384-well plates were purchased from PerkinElmer (United States); Cell-Titer Glo kit was purchased from Promega (United States).
Cell culture: HCT116 MTAP(-/-)deleted cells were cultured with RPMI 1640 medium containing 10% fetal bovine serum at 37°C in 5% carbon dioxide. Only cells in the logarithmic growth phase could be used for the test.
(§2) Test of inhibitory activity on cell proliferation: The Cell-Titer Glo kit was used to test the proliferation inhibitory activity of the compounds on HCT-116 MTAP(-/-)deleted cells. The cell concentration was adjusted, rendering that cells were inoculated into a 384-well plate at 40 µL per well and incubated overnight at 37°C and 5% carbon dioxide. 80 nL of the compound was added into each well to reach a final concentration of 0-1,000 nM (starting concentration 1,000 nM, 2.5-fold dilution, 10 points), and the cell plate with 0.2% DMSO content was incubated at 37°C and 5% carbon dioxide for 6 d. 40 µL of Cell-Titer Glo reagent was added to test cell viability.

[2] = tested on: HCT-116 wild-type cells; test: Inhibitory activity on proliferation of HCT-116 wild-type cells (Cell-Titer Glo); settings: Homo sapiens, 144 h, incubated 6 d, 0-10,000 nM
Method: as §1, with “wild-type” for “MTAP(-/-)deleted”
Cell culture: HCT-116 wild-type cells were cultured in RPMI-1640 medium containing 10% fetal bovine serum at 37°C and 5% carbon dioxide. Only cells in the logarithmic growth phase could be used for the test.
Test of cell proliferation activity: Cell-Titer Glo kit was used to test the proliferation inhibitory activity of the compound on HCT-116 wild-type cells. The cell concentration was adjusted, rendering that cells were inoculated into a 384-well plate at 40 µL per well and incubated overnight at 37°C and 5% carbon dioxide. 80 nL of the compound was added to each well to reach a final concentration of 0-10,000 nM (starting concentration 10,000 nM, 2.5-fold dilution, 10 points), and the cell plate with 0.2% DMSO content was incubated at 37°C and 5% carbon dioxide for 6 d. 40 µL of Cell-Titer Glo reagent was added to test cell viability.

[3] = tested on: LU99 MTAP(-/-)deleted cells; test: Inhibitory activity on proliferation of LU99 MTAP(-/-)deleted cells (Cell-Titer Glo); settings: Homo sapiens, Lu-99, 144 h, incubated 6 d, 0-1,000 nM
Method: (§3) Materials and cells: LU99 MTAP deleted cell line was purchased from Kyinno Biotechnology (China); cell culture medium and fetal bovine serum were purchased from Thermo Fisher Scientific (USA); 384-well plates were purchased from PerkinElmer (USA); Cell-Titer Glo kits were purchased from Promega (USA).
Cell culture: LU99 MTAP(-/-)deleted cells were cultured with medium containing 10% fetal bovine serum at 37°C in 5% carbon dioxide. Only cells in the logarithmic growth phase could be used for the test.
as §2, with “on LU99” for “on HCT-116”, “dioxide. 40” for “dioxide. 80”, “added to” for “added into”

[4] = tested on: LU99 MTAP overexpressing cells; test: Inhibitory activity on proliferation of LU99 MTAP overexpressing cells (Cell-Titer Glo); settings: Homo sapiens, Lu-99, 144 h, incubated 6 d, 0-10,000 nM
Method: as §3, with “overexpressing” for “deleted”
Cell culture: LU99 MTAP overexpressing cells were cultured with medium containing 10% fetal bovine serum at 37°C in 5% carbon dioxide. Only cells in the logarithmic growth phase could be used for the test.
Test of inhibitory activity on cell proliferation: The Cell-Titer Glo kit was used to test the proliferation inhibitory activity of the compounds on LU99 MTAP overexpressing cells. The cell concentration was adjusted, rendering that cells were inoculated into a 384-well plate at 40 µL per well and incubated overnight at 37°C and 5% carbon dioxide. 40 nL of the compound was added to each well to reach a final concentration of 0-10,000 nM (starting concentration 10,000 nM, 2.5-fold dilution, 10 points), and the cell plate with 0.2% DMSO content was incubated at 37°C and 5% carbon dioxide for 6 d. 40 µL of Cell-Titer Glo reagent was added to test cell viability.

Row | IC50 [1] | IC50 [2] | Compound | IC50 [3] | IC50 [4]
1 | 738 nM | 5870 nM | CN(C(=O)c1ccc2nc(N)c3ccccc3c2c1)C1COC(C)(C)c2cc(C(F)(F)F)ccc21 (stereo not drawn) [Example 20, 6-Amino-N-(1,1-dimethyl-7-(trifluoromethyl)isochroman-4-yl)-N-methylphenanthridine-2-carboxamide] | – | –
2 | 9.8 nM | 1030 nM | CN(C(=O)c1cc2c(cc1C(F)(F)F)nc(N)c1cnn(C)c12)[C@@H]1COC2(CCC2)c2cc(C(F)(F)F)ccc21 [Example 77] | – | –
3 | 10.5 nM | 2110 nM | CN(C(=O)c1ccc2nc(N)c3cnn(C)c3c2c1)C1COC(C)(C)c2cc(N3CCC(F)(F)C3)ccc21 (stereo not drawn) [Example 74, 4-Amino-N-(7-(3,3-difluoropyrrolidin-1-yl)-1,1-dimethylisochroman-4-yl)-N,1-dimethyl-1H-pyrazolo[4,3-c]quinoxaline-8-carboxamide] | – | –
4 | 147 nM | 3120 nM | CN(C(=O)c1ccc2nc(N)c3c(c2c1)CCC3)C1COC(C)(C)c2cc(C(F)(F)F)ccc21 (stereo not drawn) [Example 11, 4-Amino-N-(1,1-dimethyl-7-(trifluoromethyl)isochroman-4-yl)-N-methyl-2,3-dihydro-1H-cyclopenta[c]quinoline-8-carboxamide] | – | –
5 | 8.2 nM | 2610 nM | CN(C(=O)c1ccc2nc(N)c3cnn(C)c3c2c1)[C@@H]1COC(C)(C)c2cc(N3CCC4(CC3)COC4)ccc21 [Example 75, (S)-4-amino-N-(1,1-dimethyl-7-(2-oxa-7-azaspiro[3.5]nonan-7-yl)isochroman-4-yl)-N,1-dimethyl-1H-pyrazolo[4,3-c]quinoxaline-8-carboxamide] | – | –
6 | 435 nM | 7540 nM | CN(C(=O)c1ccc2nc(N)c3ccsc3c2c1)C1COC(C)(C)c2cc(C(F)(F)F)ccc21 (stereo not drawn) [Example 3, 4-Amino-N-(1,1-dimethyl-7-(trifluoromethyl)isochroman-4-yl)-N-methylthieno[3,2-c]quinoline-8-carboxamide] | – | –
7 | 6.1 nM | 2520 nM | CN(C(=O)c1ccc2nc(N)c3cnn(C)c3c2c1)[C@@H]1COC(C)(C)c2cc(N3CC(F)(F)C3)ccc21 [Example 76, (S)-4-amino-N-(7-(3,3-difluoroazetidin-1-yl)-1,1-dimethylisochroman-4-yl)-N,1-dimethyl-1H-pyrazolo[4,3-c]quinoxaline-8-carboxamide] | – | –
8 | 7.9 nM | 435 nM | CN(C(=O)c1ccc2nc(N)c3cnn(C)c3c2c1)C1COC(C)(C)c2cc(-c3cnc4cnccn34)ccc21 (stereo not drawn) [Example 48] | – | –
9 | 6.2 nM | 285 nM | CN(C(=O)c1cc2c(cn1)nc(N)c1cnn(C)c12)C1COC2(CCC2)c2cc(C(F)(F)F)ccc21 (stereo not drawn) [Example 31] | – | –

Continued, compound first:

Row | Compound | IC50 [1] | IC50 [2] | IC50 [3] | IC50 [4]
10 | CN(C(=O)c1ccc2nc(N)c3cnn(C)c3c2c1)[C@@H]1COC(C)(C)c2cc(N3CC4COCC4C3)ccc21 (stereo partly drawn) [Example 56, 4-Amino-N-((4S)-1,1-dimethyl-7-(tetrahydro-1H-furo[3,4-c]pyrrol-5(3H)-yl)isochroman-4-yl)-N,1-dimethyl-1H-pyrazolo[4,3-c]quinoxaline-8-carboxamide] | 4.4 nM | 1330 nM | – | –
11 | CN(C(=O)c1ccc2nc(N)c3cnn(C)c3c2c1)[C@@H]1COC(C)(C)c2cc(N3CCOCC3)ncc21 [Example 55] | 20.2 nM | > 10000 nM | – | –
12 | CN(C(=O)c1ccc2nc(N)c3c(c2c1)CCCC3)C1COC(C)(C)c2cc(C(F)(F)F)ccc21 (stereo not drawn) [Example 19, 6-Amino-N-(1,1-dimethyl-7-(trifluoromethyl)isochroman-4-yl)-N-methyl-7,8,9,10-tetrahydrophenanthridine-2-carboxamide] | 318 nM | 7210 nM | – | –
13 | CN(C(=O)c1ccc2nc(N)c3cnn(C)c3c2c1)[C@@H]1COC(C)(C)c2cc(C3CCOCC3)ccc21 [Example 58, (S)-4-amino-N-(1,1-dimethyl-7-(tetrahydro-2H-pyran-4-yl)isochroman-4-yl)-N,1-dimethyl-1H-pyrazolo[4,3-c]quinoline-8-carboxamide] | – | – | 5.5 nM | 987 nM
14 | CN(C(=O)c1ccc2nc(N)c3cnn(C)c3c2c1)[C@@H]1COC(C)(C)c2cc(N3CCS(=O)(=O)CC3)ccc21 [Example 78, […]] | – | – | 17 nM | 3740 nM
15 | CN(C(=O)c1ccc2nc(N)c3cnn(C)c3c2c1)C1COC2(CCC2)c2nc(N3CCOCC3)ccc21 (stereo not drawn) [Example 53, 4-amino-N,1-dimethyl-N-(2'-morpholino-5',6'-dihydrospiro[cyclobutane-1,8'-pyrano[3,4-b]pyridin]-5'-yl)-1H-pyrazolo[4,3-c]quinoxaline-8-carboxamide] | 312 nM | > 10000 nM | – | –
16 | CN(C(=O)c1ccc2nc(N)c3cnn(C)c3c2c1)C1COC(C)(C)c2cc(C(F)(F)F)ccc21 (stereo not drawn) [Example 1, 4-amino-N-(1,1-dimethyl-7-(trifluoromethyl)isochroman-4-yl)-N,1-dimethyl-1H-pyrazolo [4,3-c] quinoline-8-carboxamide] | 5.2 nM | 1200 nM | – | –
17 | CN(C(=O)c1ccc2nc(N)c3nsnc3c2c1)C1COC(C)(C)c2cc(C(F)(F)F)ccc21 (stereo not drawn) [Example 60, 4-Amino-N-(1,1-dimethyl-7-(trifluoromethyl)isochroman-4-yl)-N-methyl-[1,2,5]thiadiazolo[3,4-c]quinoline-8-carboxamide] | – | – | > 3000 nM | 2950 nM
18 | CN(C(=O)c1ccc2nc(N)c3c(c2c1)OCCO3)C1COC(C)(C)c2cc(C(F)(F)F)ccc21 (stereo not drawn) [Example 2, 5-Amino-N-(1,1-dimethyl-7-(trifluoromethyl)isochroman-4-yl)-N-methyl-2,3-dihydro-[1,4]dioxa[2,3-c]quinoline-9-carboxamide] | > 3000 nM | > 10000 nM | – | –
19 | CN(C(=O)c1ccc2nc(N)c3cnn(C)c3c2c1)[C@@H]1COC(C)(C)c2nc(N3CCOCC3)ccc21 [Example 54] | 5.8 nM | 1810 nM | – | –
20 | Cn1ncc2c(N)nc3cnc(C(=O)N(C4CC4)C4COC5(CCC5)c5cc(C(F)(F)F)ccc54)cc3c21 (stereo not drawn) [Example 87, 4-Amino-N-cyclopropyl-1-methyl-N-(7'-(trifluoromethyl)spiro[cyclobutane-1,1'-isochroman]-4'-yl)-1H-pyrazolo[4,3-c][1,7]naphthyridine-8-carboxamide] | 11.2 nM | 763 nM | – | –
21 | CN(C(=O)c1ccc2nc(N)c3cnn(C)c3c2c1)[C@@H]1COC(C)(C)c2cc(C3=CCOCC3)ccc21 [Example 57, (S)-4-amino-N-(7-(3,6-dihydro-2H-pyran-4-yl)-1,1-dimethylisochroman-4-yl)-N,1-dimethyl-1H-pyrazolo[4,3-c]quinoxaline-8-carboxamide] | 5.2 nM | 880 nM | – | –
